Measurements as given in ChEMBL document CHEMBL1201862, “PubChem BioAssay data set” (2004).
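Interpolation was linear, between the two tested concentrations surrounding the appropriate level; five concentrations were tested over 48 hours in 96-well plates. Abbreviation: GI50, concentration required for 50% inhibition of growth.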 Activity calls are given as the source filed them. Cut-off read from the data, not from the text of the source: active = GI50 up to about 1.1 µM and inactive = higher.

What was measured:
Test in all cases: growth of human tumour cells (NCI), 48 h
CCRF-CEM = system: CCRF-CEM
SK-MEL-28 = system: SK-MEL-28
IGROV-1 = system: IGROV-1
SK-OV-3 = system: SK-OV-3
RXF 631 = system: RXF 631
HOP-92 = system: HOP-92
SK-MEL-2 = system: SK-MEL-2
SN12C = system: SN12C
K562 = system: K562
SF-268 = system: SF-268
M14 = system: M14
CAKI-1 = system: CAKI-1
DMS-273 = system: DMS-273
HCC 2998 = system: HCC 2998
SF-539 = system: SF-539
SNB-75 = system: SNB-75
MOLT-4 = system: MOLT-4
NCI-H522 = system: NCI-H522
UO-31 = system: UO-31
LXFL 529 = system: LXFL 529
M19-MEL = system: M19-MEL
NCI-H226 = system: NCI-H226
RPMI-8226 = system: RPMI-8226
OVCAR-4 = system: OVCAR-4
Malme-3M = system: Malme-3M
UACC-62 = system: UACC-62
HOP-62 = system: HOP-62
786-0 = system: 786-0
NCI-H460 = system: NCI-H460
DMS-114 = system: DMS-114
HCT-116 = system: HCT-116
SNB-78 = system: SNB-78
COLO 205 = system: COLO 205
DLD-1 = system: DLD-1
NCI-H23 = system: NCI-H23
ACHN = system: ACHN
HL-60 = system: HL-60
SR = system: SR

Measured: GI50

CCCN(CCC)C1CC(n2cc(C)c(=O)[nH]c2=O)OC1CO (stereo not drawn)
inactive: CCRF-CEM > 100 µM | SK-MEL-28 > 100 µM | IGROV-1 > 100 µM | SK-OV-3 > 100 µM | RXF 631 > 100 µM | HOP-92 > 100 µM | SK-MEL-2 > 100 µM | SN12C > 100 µM | K562 > 100 µM | SF-268 > 100 µM | M14 > 100 µM | CAKI-1 > 100 µM | DMS-273 > 100 µM | HCC 2998 > 100 µM | SF-539 > 100 µM | SNB-75 > 100 µM | MOLT-4 > 100 µM | NCI-H522 > 100 µM | UO-31 > 100 µM | LXFL 529 > 100 µM | M19-MEL > 100 µM | NCI-H226 > 100 µM | RPMI-8226 > 100 µM | OVCAR-4 > 100 µM | Malme-3M > 100 µM | UACC-62 > 100 µM | HOP-62 > 100 µM | 786-0 > 100 µM | NCI-H460 > 100 µM | DMS-114 > 100 µM | HCT-116 > 100 µM | SNB-78 > 100 µM | COLO 205 > 100 µM | DLD-1 > 100 µM | NCI-H23 > 100 µM | ACHN > 100 µM | HL-60 > 100 µM | SR > 100 µM
